Assay results published in ChEMBL document CHEMBL4270563, “Neurogenic and neuroprotective donepezil-flavonoid hybrids with sigma-1 affinity and inhibition of key enzymes in Alzheimer's disease” (Eur J Med Chem, 2018).
Calls of active or inactive are those of the source. The calls are words filed in the database; no cut-off is given here.

Legend:
Acetylcholinesterase [1] = target: T1, Acetylcholinesterase (Homo sapiens, UniProt P22303); assay: Inhibition of recombinant human AChE expressed in HEK293 cells using acetylthiocholine iodide as substrate pretreated for 5 mins followed by substrate addition and measured for 5 mins by Ellman's method
Homo sapiens = organism: Homo sapiens; assay: Selectivity index, ratio of IC50 for human serum BuChE to IC50 for recombinant human AChE expressed in HEK293 cells; format: cell-based
Cholinesterase = Cholinesterase (Homo sapiens, UniProt P06276); assay: Inhibition of human serum BuChE using butyrylthiocholine as substrate pretreated for 5 mins followed by substrate addition and measured for 5 mins by Ellman's method
in vitro = conditions: PAMPA, pH 7.4
Description: Permeability of the compound in pH 7.4 PBS by PAMPA-BBB assay

[2] = Antioxidant activity assessed as trolox equivalent of AAPH-induced radical scavenging activity pretreated for 15 mins followed by APPH challenge measured every minute for 80 mins by ORAC-FL assay; format: functional
[3] = target: T2, Amine oxidase [flavin-containing] B (Homo sapiens, UniProt P27338); assay: biochemical; format: cell-based
T2 sequence (P27338 whole entry): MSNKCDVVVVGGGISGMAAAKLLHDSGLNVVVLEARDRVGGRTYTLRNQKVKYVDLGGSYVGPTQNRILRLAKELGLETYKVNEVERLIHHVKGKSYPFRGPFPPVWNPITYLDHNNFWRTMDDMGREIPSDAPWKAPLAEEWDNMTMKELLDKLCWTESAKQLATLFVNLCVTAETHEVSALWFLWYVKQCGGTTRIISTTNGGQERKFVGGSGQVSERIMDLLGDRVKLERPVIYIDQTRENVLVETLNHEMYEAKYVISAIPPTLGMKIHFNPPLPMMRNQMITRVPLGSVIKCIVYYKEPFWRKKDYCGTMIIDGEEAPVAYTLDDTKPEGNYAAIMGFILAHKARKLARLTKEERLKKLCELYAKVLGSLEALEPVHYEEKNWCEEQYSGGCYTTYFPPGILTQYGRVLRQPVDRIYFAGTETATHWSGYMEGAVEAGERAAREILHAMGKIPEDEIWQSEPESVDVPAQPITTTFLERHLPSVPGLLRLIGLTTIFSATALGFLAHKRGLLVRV
Description: Inhibition of recombinant human MAO-B expressed in baculovirus infected BTI insect cells using p-tyramine as substrate pretreated for 15 mins followed by substrate addition by horse-radish peroxidase/amplex red-based fluorescence method

[4] = target: T3, Sigma intracellular receptor 2 (Rattus norvegicus, UniProt Q5U3Y7); assay: Displacement of [3H]DTG from sigma2 receptor in rat liver membranes by liquid scintillation counting method; format: cell membranes, Membrane
T3 sequence (Q5U3Y7 whole entry): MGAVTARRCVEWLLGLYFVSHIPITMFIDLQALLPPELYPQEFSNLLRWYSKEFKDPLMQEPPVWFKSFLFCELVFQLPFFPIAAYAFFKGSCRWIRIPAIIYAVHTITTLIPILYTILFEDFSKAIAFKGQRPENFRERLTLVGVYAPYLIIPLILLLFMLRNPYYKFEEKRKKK

[5] = Selectivity ratio of Ki for displacement of [3H]DTG from sigma2 receptor in rat liver membranes to Ki for displacement of (+)-[3H]pentazocine from guinea pig brain membrane sigma1 receptor; format: cell membranes
[6] = target: T4, Polyunsaturated fatty acid 5-lipoxygenase (Homo sapiens, UniProt P09917); assay: Inhibition of human 5-lipoxygenase using arachidonic acid as substrate pretreated for 10 mins followed by substrate and ATP addition and measured after 20 mins by H2DCFDA probe based fluorescence assay
T4 sequence (P09917 whole entry): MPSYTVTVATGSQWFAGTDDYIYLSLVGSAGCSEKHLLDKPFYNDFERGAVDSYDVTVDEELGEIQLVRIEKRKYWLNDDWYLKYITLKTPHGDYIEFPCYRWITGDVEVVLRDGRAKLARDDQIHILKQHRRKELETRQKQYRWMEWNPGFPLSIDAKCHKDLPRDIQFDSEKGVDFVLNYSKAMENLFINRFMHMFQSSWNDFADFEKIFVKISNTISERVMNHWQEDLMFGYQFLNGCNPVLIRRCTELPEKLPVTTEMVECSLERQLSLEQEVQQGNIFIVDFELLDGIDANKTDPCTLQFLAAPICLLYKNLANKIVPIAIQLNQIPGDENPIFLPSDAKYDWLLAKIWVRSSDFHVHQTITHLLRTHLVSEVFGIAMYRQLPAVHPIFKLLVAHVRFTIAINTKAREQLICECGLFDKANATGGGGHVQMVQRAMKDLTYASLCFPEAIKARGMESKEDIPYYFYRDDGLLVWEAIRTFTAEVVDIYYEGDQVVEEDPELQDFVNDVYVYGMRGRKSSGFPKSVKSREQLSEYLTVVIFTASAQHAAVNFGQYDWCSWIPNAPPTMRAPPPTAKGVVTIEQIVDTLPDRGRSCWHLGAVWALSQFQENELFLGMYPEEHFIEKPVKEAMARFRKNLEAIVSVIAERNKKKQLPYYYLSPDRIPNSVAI

[7] = target: T5, Amine oxidase [flavin-containing] A (Homo sapiens, UniProt P21397); assay: Inhibition of recombinant human MAO-A expressed in baculovirus infected BTI insect cells using p-tyramine as substrate pretreated for 15 mins followed by substrate addition by horse-radish peroxidase/amplex red-based fluorescence method
T5 sequence (P21397 whole entry): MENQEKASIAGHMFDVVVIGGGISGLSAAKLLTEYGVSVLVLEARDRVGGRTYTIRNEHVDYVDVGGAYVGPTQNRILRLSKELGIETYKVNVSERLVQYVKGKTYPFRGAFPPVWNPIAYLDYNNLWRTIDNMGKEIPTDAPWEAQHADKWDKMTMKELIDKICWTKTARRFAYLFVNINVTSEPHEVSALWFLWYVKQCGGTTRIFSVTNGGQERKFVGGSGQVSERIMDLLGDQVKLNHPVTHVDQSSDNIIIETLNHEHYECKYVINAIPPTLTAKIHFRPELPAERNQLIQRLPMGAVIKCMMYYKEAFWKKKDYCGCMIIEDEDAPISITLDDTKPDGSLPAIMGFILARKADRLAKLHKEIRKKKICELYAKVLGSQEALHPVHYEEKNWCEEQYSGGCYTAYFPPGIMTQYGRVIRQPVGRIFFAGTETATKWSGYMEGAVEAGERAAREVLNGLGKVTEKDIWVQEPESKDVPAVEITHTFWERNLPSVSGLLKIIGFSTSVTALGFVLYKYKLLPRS

Acetylcholinesterase [8] = target: T1, Acetylcholinesterase; assay: Inhibition of recombinant human AChE expressed in HEK293 cells using varying levels of acetylthiocholine iodide as substrate by Lineweaver-burk plot analysis
[9] = target: Sigma non-opioid intracellular receptor 1 (Cavia porcellus, UniProt Q60492); assay: Displacement of (+)-[3H]pentazocine from guinea pig brain membrane sigma1 receptor by liquid scintillation counting method
[10] = Antioxidant activity assessed as trolox equivalent of AAPH-induced radical scavenging activity at 10 uM pretreated for 15 mins followed by APPH challenge measured every minute for 80 mins by ORAC-FL assay; format: functional
[11] = target: T6, Polyunsaturated fatty acid 5-lipoxygenase (Homo sapiens) (UniProt P09917); assay: Inhibition of human 5-lipoxygenase at 10 uM using arachidonic acid as substrate pretreated for 10 mins followed by substrate and ATP addition and measured after 20 mins by […] probe based fluorescence assay relative to control
T6 sequence (whole entry): T4 sequence (P09917 whole entry)

Sequence of Sigma non-opioid intracellular receptor 1 (Q60492 whole entry): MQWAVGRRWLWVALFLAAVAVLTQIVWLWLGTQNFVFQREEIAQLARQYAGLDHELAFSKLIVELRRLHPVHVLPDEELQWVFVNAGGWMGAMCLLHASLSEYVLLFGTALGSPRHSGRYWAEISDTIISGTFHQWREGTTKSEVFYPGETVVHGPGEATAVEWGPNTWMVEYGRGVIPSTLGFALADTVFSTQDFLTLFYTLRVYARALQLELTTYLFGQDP
T1 sequence (P22303 whole entry): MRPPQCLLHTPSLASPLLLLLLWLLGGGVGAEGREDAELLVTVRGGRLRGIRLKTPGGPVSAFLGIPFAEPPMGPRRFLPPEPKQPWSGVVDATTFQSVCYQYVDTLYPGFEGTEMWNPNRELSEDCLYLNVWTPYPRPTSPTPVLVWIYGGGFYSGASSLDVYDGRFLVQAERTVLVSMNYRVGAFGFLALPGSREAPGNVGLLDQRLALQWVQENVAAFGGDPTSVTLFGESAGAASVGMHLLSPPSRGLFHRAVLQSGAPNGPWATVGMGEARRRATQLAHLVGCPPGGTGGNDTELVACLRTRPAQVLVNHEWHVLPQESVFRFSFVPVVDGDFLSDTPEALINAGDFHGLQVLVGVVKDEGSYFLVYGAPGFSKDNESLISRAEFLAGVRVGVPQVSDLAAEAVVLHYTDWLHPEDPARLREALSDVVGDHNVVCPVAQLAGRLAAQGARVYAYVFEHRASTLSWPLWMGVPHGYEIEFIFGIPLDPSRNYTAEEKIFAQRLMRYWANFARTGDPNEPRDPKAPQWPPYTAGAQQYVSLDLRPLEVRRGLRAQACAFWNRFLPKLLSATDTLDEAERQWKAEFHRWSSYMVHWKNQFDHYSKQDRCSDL
Sequence of Cholinesterase (P06276 whole entry): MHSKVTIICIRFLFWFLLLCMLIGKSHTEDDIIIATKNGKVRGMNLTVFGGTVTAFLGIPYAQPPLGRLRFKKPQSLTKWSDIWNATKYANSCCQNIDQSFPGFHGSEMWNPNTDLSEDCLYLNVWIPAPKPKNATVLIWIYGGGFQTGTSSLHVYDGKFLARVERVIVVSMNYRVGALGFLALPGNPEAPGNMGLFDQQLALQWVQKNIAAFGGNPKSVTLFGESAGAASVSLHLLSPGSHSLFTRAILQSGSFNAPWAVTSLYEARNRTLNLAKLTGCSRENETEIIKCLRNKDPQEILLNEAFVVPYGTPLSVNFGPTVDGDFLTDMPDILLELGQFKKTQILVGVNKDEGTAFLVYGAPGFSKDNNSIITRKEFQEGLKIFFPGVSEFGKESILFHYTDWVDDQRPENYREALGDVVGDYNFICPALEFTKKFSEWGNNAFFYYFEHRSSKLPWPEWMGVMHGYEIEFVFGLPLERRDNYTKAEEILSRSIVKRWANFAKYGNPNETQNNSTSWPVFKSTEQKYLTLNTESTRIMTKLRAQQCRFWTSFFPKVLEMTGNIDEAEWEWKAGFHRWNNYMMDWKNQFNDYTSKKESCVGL

Row | SMILES | IC50 (Acetylcholinesterase [1]) [nM] | Ratio IC50 (Homo sapiens) | IC50 (Cholinesterase) [µM] | Papp (in vitro) [×10⁻⁶ cm/s] | Activity (umolequiv/umol) [2] | IC50 [3] [µM] | Ki [4] [nM] | Ratio Ki [5] | IC50 [6] [µM] | IC50 [7] [µM] | Ki (Acetylcholinesterase [8]) [nM] | Ki [9] [nM] | Activity [10] | inhibition [11] [%]
1 | COc1cccc2oc(C(=O)NCCC3CCN(Cc4ccccc4)CC3)cc(=O)c12 | 870 | > 12 | > 10 |  |  |  |  |  |  |  |  |  |  | 
2 | COc1ccc2oc(C(=O)OCC3CCN(Cc4ccccc4)CC3)cc(=O)c2c1 | 7490 | > 1.3 | > 10 | 6.1 |  |  |  |  |  |  |  |  |  | 
3 | O=C(NCCCC1CCN(Cc2ccccc2)CC1)c1cc(=O)c2cc(O)ccc2o1 | 23 | > 435 | > 10 | 4.5 | 1.3 | > 100 | 301 | 87 | 15.1 | > 100 | 11 | 3.48 |  | 
4 | O=C(NCCC1CCN(Cc2ccccc2)CC1)c1cc(=O)c2cc(O)c(O)cc2o1 | 4130 | > 2.4 | > 10 | 3.2 | 1.7 | 37.9 | 278 | 10 | 4.2 | 70.5 |  | 27 |  | 
5 | COc1cc2oc(C(=O)OCCC3CCN(Cc4ccccc4)CC3)cc(=O)c2cc1OC | 56 |  | > 10 |  |  |  |  |  |  |  | 11 |  |  | 
6 | COc1ccc2oc(C(=O)NCCCC3CCN(Cc4ccccc4)CC3)cc(=O)c2c1 | 370 | 16 | 5.8 | 10.6 |  | > 100 |  |  | 82.4 | > 100 |  |  | inactive | 
7 | COc1cc2oc(C(=O)NCC3CCN(Cc4ccccc4)CC3)cc(=O)c2cc1OC | 1460 | > 6.8 | > 10 |  |  |  |  |  | > 100 |  |  |  |  | 45
8 | COc1cc(OC)c2c(=O)cc(C(=O)NCCC3CCN(Cc4ccccc4)CC3)oc2c1 | 320 | 20 | 6.3 | 8.8 |  |  |  |  |  |  |  |  |  | 
9 | O=C(NC1CCN(Cc2ccccc2)CC1)c1cc(=O)c2cc(O)ccc2o1 | 2360 | > 4.2 | > 10 | 1.9 |  |  |  |  | > 100 |  |  |  |  | 48
10 | COc1cc2oc(C(=O)NCCCC3CCN(Cc4ccccc4)CC3)cc(=O)c2cc1OC | 110 | > 91 | > 10 | 5 |  | > 100 |  |  | > 100 | > 100 | 21 |  | inactive | 48
11 | COc1ccc2c(=O)cc(C(=O)NCCC3CCN(Cc4ccccc4)CC3)[nH]c2c1 | 450 | > 22 | > 10 | 10.9 |  | 56.4 | 376 | 8 | > 100 | 72.7 |  | 45.2 | inactive | 31
12 | COc1ccc2[nH]c(C(=O)NCCC3CCN(Cc4ccccc4)CC3)cc(=O)c2c1 | 880 | > 11 | > 10 | 12 |  | > 100 | 459 | 64 | > 100 | > 100 |  | 7.2 | inactive | 31
13 | Nc1ccc2oc(C(=O)NCCC3CCN(Cc4ccccc4)CC3)cc(=O)c2c1 | 41 | 105 | 4.3 | 7.6 | 0.9 | > 100 | 421 | 290 | 28.9 | > 100 | 62 | 1.45 |  | 
14 | O=C(NCCC1CCN(Cc2ccccc2)CC1)c1cc(=O)c2c(O)cc(O)cc2o1 | 580 | > 17 | > 10 | 3.7 | 0.8 |  |  |  | 95.1 |  |  |  |  | 
15 | COc1cc2[nH]c(C(=O)NCCC3CCN(Cc4ccccc4)CC3)cc(=O)c2cc1OC | 170 | > 59 | > 10 | 5.3 |  | > 100 | 487 | 13 | > 100 | > 100 | 60 | 36.3 | inactive | 31
16 | COc1ccc2oc(C(=O)NCCC3CCN(Cc4ccccc4)CC3)cc(=O)c2c1 | 170 | 38 | 6.5 | 10 |  | > 100 |  |  | > 100 | > 100 |  |  |  | 33
17 | O=C(NCCC1CCN(Cc2ccccc2)CC1)c1cc(=O)c2ccccc2o1 | 110 | 46 | 5.09 | 6.7 |  |  |  |  | > 100 |  | 57 |  |  | 24
18 | COc1ccc2oc(C(=O)NCC3CCN(Cc4ccccc4)CC3)cc(=O)c2c1 | 3610 | > 2.8 | > 10 | 6.8 |  |  |  |  |  |  |  |  |  | 
19 | COc1cccc2c(=O)cc(C(=O)NCCC3CCN(Cc4ccccc4)CC3)[nH]c12 | 1640 | > 6.1 | > 10 | 15.3 |  | 71.6 |  |  | > 100 | 52.4 |  |  | inactive | 47
20 | COc1cc2nc(C(=O)NCCC3CCN(Cc4ccccc4)CC3)cc(OC)c2cc1OC | 620 | 14 | 8.79 | 13 |  |  |  |  |  |  |  |  |  | 
21 | COc1ccc2c(=O)cc(C(=O)NCCC3CCN(Cc4ccccc4)CC3)oc2c1 | 33 | 300 | 9.9 | 7.6 |  | > 100 |  |  | > 100 | > 100 |  |  |  | 31
